Laboratory results taken from patent US10702465B2, “Oral care formulation and method for the removal of tartar and plaque from teeth” (priority 2015, dated 2020).
Entries after “also recorded” stand apart in the source; their conditions may differ.

Tests used:
[1] = Centrifuge studies of colloidal fragmentation of tartar; format: in vivo, human; details: each agent alone
Excerpt: Together DMI and chlorine dioxide fragment the insoluble glucan and polypeptide matrix which hold tartar together. […] Not to be held to any specific mechanism of action, it would appear that the primary role of chlorine dioxide is to break polypeptide linkages and protein polyol linkages. But this ability alone is insufficient for tartar fragmentation. The insoluble glucan matrix also appears to provide much of the needed glue to keep the tartar intact. Dimethyl isosorbide appears to enter the cracks within the insoluble glucan structure and splay out the glucan structure which in turn promotes the entry of water to re-hydrate the normally insoluble glucan and destabilize and glucan/biofilm matrix and fragment the tartar structure. Evidence for this rehydration and fragmentation mechanism is provided in the following two studies.
In the first study the subject's teeth were flossed with Reach floss, then flossed with a Waterpik water flosser. After the water flossing the water was removed from the mouth. 3 ml of distilled water was added to the mouth and the teeth were brushed with only water for 2 minutes. After the 2 minutes brushing cycle, the water was expelled into a funnel into a centrifuge tube. The subject's teeth were again flossed with a water flosser and then procedure “A” was followed three more times for a total of four 2 minute brushing cycles. […]

[2] = background statement; cited from earlier work
[3] = Tolerability of chlorine dioxide concentrations in use
[4] = tested on: Streptococcus mutans; details: high concentrations; cited from earlier work
[5] = 24 hour period, 100% and 50% aqueous concentrations; cited from earlier work
[6] = Tartar removal trials by flossing and brushing, intraoral photographs (Example 5); format: in vivo, human; details: with chlorine dioxide
Excerpt: All photographs in this example were taken by a professional oral hygienist using a Schick intraoral digital camera.
In other unsuccessful trials dimethyl isosorbide was mixed with numerous common tartar reducing toothpastes. The following picture is typical the failed result of six months of flossing with Reach® waxed floss and brushing twice per day with these various tartar reducing toothpastes with a Philips Sonicare® toothbrush for two minutes. The DMI concentration in each case was 7.1% (w).
The white spots present in FIGS. 15 and 17 are from enamel erosion from previous years of heavy tartar presence and attack of the enamel by bacteria.
In a separate study, 5% (w) DMI was mixed with 0.0094% (w) chlorine dioxide in of water [94.5% (w)]. After flossing the DMI-chlorine dioxide-water mixture was transferred to the mouth of the subject and the subject brushed the teeth for 2 minutes with Philips Sonicare®. After 6 weeks of flossing and brushing twice per day with the DMI-chlorine dioxide-water mixture, the photograph of FIG. 16 was taken.
After the picture of FIG. 16 was taken the trial formulation was changed from 5% (w) to 15% DMI 0.0085% (w) chlorine dioxide in water [84.9% (w)]. This new formulation was used for 8 weeks with the same flossing and brushing regimen used in the first 6 weeks. […]

Structure (SMILES) | ability to fragment the tartar matrix [1] | removal of tartar from teeth [2] | problems in use ([3]; chlorine dioxide at 0.01%) | problems in use ([3]; increased concentrations of chlorine dioxide (above 0.01%)) | antibacterial properties [4] | ability to fragment the tartar matrix ([1]; listed as DMI) | dissolution of collected dental tartar [5] | removal of preexisting tartar ([6]; DMI levels above 10% (w)) | level of DMI at which no tartar is reported ([6]; light tartar producers)
[O][Cl+][O-] [chlorine dioxide] | Neither chlorine dioxide nor DMI by themselves show the ability to fragment the tartar matrix; also recorded: Neither chlorine dioxide nor DMI alone show the ability to fragment this matrix | ineffective in removing tartar | no reported problems | no problems |  |  |  |  | 
CO[C@H]1CO[C@H]2[C@@H]1OC[C@H]2OC [DMIS, dimethylisosorbide] |  | not effective at removing tartar from subjects' teeth in vivo |  |  | weak antibacterial at high concentrations | Neither chlorine dioxide nor DMI by themselves show the ability to fragment the tartar matrix; also recorded: Neither chlorine dioxide nor DMI alone show the ability to fragment this matrix; also recorded: insufficient to allow DMI alone to rehydrate and fragment the tartar matrix | slowly dissolved | removed fairly rapidly | around 5% (w) or 8% (w)
